Patent publication US20100209345A1, “Fluorinated Ligands for Targeting Peripheral Benzodiazepine Receptors” (Australian Nuclear Science & Technology Organisation, priority 2006, published 2010)
pIC50: −log10 of the molar value. “Also recorded” adds a separate entry of the source.

How the values were obtained:
[1] = biological target: central benzodiazepine receptors; experiment: In vitro binding, [3H]-Flumazenil, brain cortex membrane preparation; details: [3H]-Flumazenil (2 nM), 25° C., 45 min, read-out: CBR IC50
Summary of the method: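 Brain cortex membranes bound with [3H]-flumazenil; non-specific binding defined by 20 μM flumazenil. Filtration on GF/B, washes in ice-cold 50 mM Tris/HCl pH 7.4, bound counts by scintillation, IC50 derived from displacement.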

[2] = biological target: T1, peripheral benzodiazepine binding site (Rattus norvegicus, UniProt P16257); experiment: In vitro binding, [3H]-PK11195, kidney membrane preparation; details: PBR IC50 (nM), [3H]-PK11195 (2 nM), 4° C., 1 h
T1 construct: diluted kidney membrane preparation (200 μg); from tissue; host or cells: kidney membrane preparation
Description: Non-specific binding was determined with PK11195 (10 μM).
Non-specific binding was determined with Flumazenil (20 μM). In both cases, incubations were terminated by rapid filtration through Whatman GF/B glass fibre. Filters were immediately washed 3 times with 5 mL ice-cold 50 mM Tris/HCl at pH 7.4. Filters were counted in a β-scintillation counter (Packard) to measure the amount of bound radioactivity. The IC50 of the compounds for the peripheral benzodiazepine binding site and the central benzodiazepine receptor were calculated using Kell 6 software.

[3] = biological target: T2, peripheral benzodiazepine receptors (Rattus norvegicus, UniProt P16257); experiment: In vivo blocking / competition of tracer uptake by pre-treatment with PBR and CBR ligands; details: rats; for Tracer uptake after pre-treatment with PK 11195 / Tracer uptake in the adrenals after pre-treatment with PK 11195: PK 11195 1 mg/kg 5 min prior to tracer; for Tracer uptake after pre-treatment with PK 11195 / Tracer uptake after pre-treatment with Ro 5-4864: PBR-expressing tissues (brain/peripheral organs, adrenals apart); for Tracer uptake after pre-treatment with Ro 5-4864 / Tracer uptake in the adrenals after pre-treatment with Ro 5-4864: Ro 5-4864 1 mg/kg 5 min prior to tracer; for Tracer uptake after pre-treatment with flumazenil (central benzodiazepine ligand): flumazenil 1 mg/kg 5 min prior to tracer, brain or peripheral organs; for Tracer uptake after pre-treatment with the non-radioactive analogue: non-radioactive analogue 1 mg/kg, PBR-expressing tissues
T2 construct: high uptake in the tissues which have known PBR sites; from tissue; host or cells: organs of living SD rats (brain and peripheral tissues), in vivo
Summary of the method: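 SD rats received PBR ligands PK11195 or Ro 5-4864, or the CBR ligand flumazenil, at 1 mg/kg 5 min before tracer injection. Brain and peripheral tissue uptake analysed at 15, 30 min, 1 and 4 h p.i.; significance set at p<0.05 and p<0.01 versus normals or controls.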

Structure (SMILES) | pIC50 [1] | IC50 [2] [nM] | Tracer uptake after pre-treatment with PK 11195 [3] | Tracer uptake after pre-treatment with PK 11195 ([3]; listed as [^18F]PBR102) | Tracer uptake in the adrenals after pre-treatment with PK 11195 [3] | Tracer uptake after pre-treatment with Ro 5-4864 [3] | Tracer uptake after pre-treatment with Ro 5-4864 ([3]; listed as [^18F]PBR102) | Tracer uptake in the adrenals after pre-treatment with Ro 5-4864 [3] | Tracer uptake after pre-treatment with flumazenil (central benzodiazepine ligand) [3] | Tracer uptake after pre-treatment with flumazenil (central benzodiazepine ligand) ([3]; listed as [^18F]PBR102) | Tracer uptake after pre-treatment with the non-radioactive analogue [3] | Tracer uptake in the olfactory regions after pre-treatment with PK 11195 and Ro 5-4864 ([3]; 1 mg/kg 5 min prior to tracer, olfactory regions) | Tracer uptake after pre-treatment with PK 11195 ([3]; listed as [^18F]PBR111) | Tracer uptake after pre-treatment with Ro 5-4864 ([3]; listed as [^18F]PBR111) | Tracer uptake after pre-treatment with flumazenil (central benzodiazepine ligand) ([3]; listed as [^18F]PBR111) | Tracer uptake after pre-treatment with the non-radioactive analogue ([3]; listed as [^18F]PBR111)
CCN(CC)C(=O)Cc1c(-c2ccc(OCCF)cc2)nc2ccc(Cl)cn12 [PBR102, 2-(2-(4-(2-fluoroethoxy)phenyl)-6-chloroimidazo[1,2-a]pyridin-3-yl)-N,N-diethylacetamide] | 5.81 | 13.2 | decreased | blocking effect | increase | decreased | blocking effect | increase | no effect | does not reduce | blocking effect |  |  |  |  | 
CCN(CC)C(=O)Cc1c(-c2ccc(OCCCF)cc2)nc2ccc(Cl)cn12 [PBR111, 2-(2-(4-(3-fluoropropoxy)phenyl)-6-chloroimidazo[1,2-a]pyridin-3-yl)-N,N-diethylacetamide] | 5.80 | 7.5 | decreased |  | increase | decreased |  | increase | no effect |  |  | non-significant decrease | reduced uptake; also recorded: blocking effect | reduced uptake; also recorded: blocking effect | does not compete; also recorded: does not reduce | reduced uptake; also recorded: blocking effect
